Values joined by “and” are separate entries in the source; they are usually repeats but may differ in a detail not shown here. Equal entries are not always repeated. Where two headings read alike, the source gives them in different places.
Experiments:
MIOX from hog kidney = target: T1, MIOX from hog kidney (Sus scrofa, UniProt Q8WN98); conditions: cited from earlier work; for inhibition of MIOX from hog kidney in vitro: reported (30, 31); for inhibition of MIOX activity: at high concentrations, reported previously (30, 31)
T1 sequence (Q8WN98 1-282): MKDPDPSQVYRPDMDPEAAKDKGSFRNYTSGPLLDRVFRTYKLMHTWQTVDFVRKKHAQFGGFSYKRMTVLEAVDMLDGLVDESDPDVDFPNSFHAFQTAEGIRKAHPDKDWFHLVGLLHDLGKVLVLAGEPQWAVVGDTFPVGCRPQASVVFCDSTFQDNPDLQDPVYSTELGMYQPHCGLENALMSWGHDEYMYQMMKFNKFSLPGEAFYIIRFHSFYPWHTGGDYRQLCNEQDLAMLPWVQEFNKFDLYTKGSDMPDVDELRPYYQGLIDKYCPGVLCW

[1] = target: T2, uronate dehydrogenase (Udh) of P. syringae (Pseudomonas syringae pv. tomato, UniProt Q888H1); test: Udh activity in crude E. coli lysates (NADH generation at 340 nm); type: biochemical; conditions: crude E. coli lysates containing the P. syringae udh gene; data not shown
T2 construct: made in house; host or cells: E. coli (DH10B or BL21(DE3)); crude lysate, not purified
Protocol: Assays for uronate dehydrogenase activity were performed by monitoring NADH co-factor generation at 340 nm as described previously (35, 40). The reaction mixture contained 100 mM sodium phosphate buffer (pH 8.0), 2.5 mM glucuronic acid, 0.9 mM NAD^+, and bacterial lysate prepared as described above.
Bacterial lysates for enzymatic analysis were prepared by the freeze-thaw method. E. coli strains harboring udh genes were grown overnight in LB medium containing 0.1 mM IPTG (Isopropyl β-D-1-thiogalactopyranoside). Pellets were re-suspended in 1 mg/mL lysozyme solution and incubated on ice for 30 min. The suspensions were frozen in liquid nitrogen then thawed in a 37° C. water bath. This step was repeated five times. Cell lysates were centrifuged at 14,000 rpm at 4° C. for 15 min, and the supernatant was used for enzymatic analysis. Udh activities on glucuronate were measured by monitoring NADH (nicotinamide adenine dinucleotide, reduced) generation at 340 nm (38). The reaction mixture was consisted of 2.5 mM glucuronate, 0.9 mM NAD^+ (nicotinamide adenine dinucleotide), and 100 mM sodium phosphate buffer. The reaction was initiated by the addition of lysate to the reaction mixture at room temperature, and monitored. […] The total protein concentration was determined using the Bradford method (Bradford (1976) Anal Biochem 72:248-54). […]

E. coli = E. coli growth and glucose consumption with added organic acid salts; type: cell-based, Escherichia coli; conditions: added at concentrations as high as 10 g/L; data not shown
[2] = target: T3, uronate dehydrogenase from P. putida (Pseudomonas putida, UniProt Q88NN6); test: Kinetic analysis of purified Udh (initial NADH generation at 340 nm); type: biochemical, Pseudomonas putida KT2440; conditions: purified 6×His Udh, 0 to 10 mM substrate, 1.2 mM NAD^+
T3 construct: 6xHis (C); made in house; host or cells: E. coli BL21 (DE3)
Protocol: (§1) The udh genes from genomic DNA of A. tumefaciens, P. putida, and P. syringae were amplified using primers ATuEQ-F/R, PPuEQ-F/R, and PSuEQ-F/R as listed in Table 4. The PCR products were digested with SacI and HindIII and inserted into the same sites of pET21b containing a 6×His-Tag to construct pETATu, pETPPu, and pETPSu, respectively (Table 4). These plasmids were used to transform E. coli BL21 (DE3) to use for protein expression. The recombinant E. coli BL21 strains were cultivated at 30° C., 250 rpm for 6 hours after IPTG induction. Protein purification was carried out using the ProBond™ Purification System as described by the manufacturer (Invitrogen Corp, Carlsbad, Calif., USA). SDS-PAGE (sodium dodecyl sulfate-polyacrylamide gel electrophoresis) was performed as described in Sambrook et. al. (35). Enzyme activities on substrates of purified proteins were measured by monitoring initial NADH generation at 340 nm and room temperature. Kinetic analysis on glucuronate and galacturonate was carried out using 0 to 10 mM glucuronate or galacturonate and 1.2 mM NAD^+ in 100 mM Tris-HCl, pH 8.0. Kinetic analysis on NAD^+ was performed using 0 to 2 mM NAD^+ and 10 mM glucuronate in 100 mM Tris-HCl, pH 8.0. A series of enzymatic assays were conducted to estimate the initial activity as a function of starting substrate concentration. […] Nonlinear least-squares regression analyses were performed via the Gauss-Newton method as implemented using the intrinsic Matlab® function nlinfit.

[3] = target: T4, uronate dehydrogenase from P. syringae (Pseudomonas syringae pv. tomato, UniProt Q888H1); test: as above; type: biochemical, Pseudomonas syringae pv. tomato str. DC3000; conditions: purified 6×His Udh, 0 to 10 mM substrate, 1.2 mM NAD^+
T4 construct: 6xHis (C); made in house; host or cells: E. coli BL21 (DE3)
Protocol: as §1

[4] = target: T5, uronate dehydrogenase from A. tumefaciens (Agrobacterium fabrum, UniProt Q7CRQ0); test: as above; type: biochemical, Agrobacterium tumefaciens str. C58; conditions: for kcat / Km: purified 6×His Udh, 0 to 10 mM substrate, 1.2 mM NAD^+
T5 construct: 6xHis (C); made in house; host or cells: E. coli BL21 (DE3)
Protocol: as §1

[5] = Thermal stability of purified Udhs (30 minutes at temperature, then standard assay); type: physicochemical; conditions: purified Udh, FIG. 10b
Protocol: The impact of temperature was evaluated in two ways. First, the thermal stability was examined by exposing enzyme preparations to various temperatures for 30 minutes, then performing the enzyme assay under standard conditions. […] The activity remained near 80% of maximum after exposure of the A. tumefaciens preparation to 37° C., while the corresponding activities for both of the other enzymes was below 20% of maximum. The stability profiles for both Pseudomonas enzymes were similar to one another. Finally, enzyme activity was evaluated for assays conducted under increasing temperatures. These activities followed a general trend of increasing activity with increasing temperature between 4 and 42° C., which is consistent with an Arrhenius-type dependence of the catalytic rate constant on temperature (FIG. 10c).

[6] = 100 mM Tris-HCl pH 8.0, room temperature

T4 sequence (Q888H1 whole entry): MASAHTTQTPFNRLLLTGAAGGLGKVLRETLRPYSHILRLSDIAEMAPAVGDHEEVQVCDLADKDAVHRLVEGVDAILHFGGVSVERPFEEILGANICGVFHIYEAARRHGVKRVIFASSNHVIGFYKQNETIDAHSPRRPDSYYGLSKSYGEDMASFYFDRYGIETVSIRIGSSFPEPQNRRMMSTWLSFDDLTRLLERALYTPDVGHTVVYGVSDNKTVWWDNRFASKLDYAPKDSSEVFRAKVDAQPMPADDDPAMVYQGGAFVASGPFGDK
T3 sequence (Q88NN6 whole entry): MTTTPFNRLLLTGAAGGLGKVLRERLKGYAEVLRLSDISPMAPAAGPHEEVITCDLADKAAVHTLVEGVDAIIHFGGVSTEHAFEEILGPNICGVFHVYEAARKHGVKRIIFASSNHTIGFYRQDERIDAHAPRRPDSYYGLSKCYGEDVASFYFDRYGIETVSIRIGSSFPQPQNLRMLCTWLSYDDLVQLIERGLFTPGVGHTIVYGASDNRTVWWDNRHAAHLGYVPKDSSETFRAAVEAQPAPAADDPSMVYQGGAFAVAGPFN
T2 sequence (Q888H1 whole entry): as the sequence (Q888H1 whole entry) above

O=C[C@H](O)[C@H]1OC(=O)[C@@H](O)[C@H]1O [D-glucuronolactone]
inhibition of MIOX from hog kidney in vitro (MIOX from hog kidney): not

[Fe+2] [Fe^2+]
inhibition of MIOX activity (MIOX from hog kidney): inhibited

N[C@@H](CS)C(=O)O [cysteine]
inhibition of MIOX activity (MIOX from hog kidney): inhibited

NC(=O)c1ccc[n+]([C@@H]2O[C@H](COP(=O)([O-])OP(=O)(O)OC[C@H]3O[C@@H](n4cnc5c(N)ncnc54)[C@H](OP(=O)(O)O)[C@@H]3O)[C@@H](O)[C@H]2O)c1 [NADP^+]
utilization as a co-factor [1]: not

O=C[C@H](O)[C@@H](O)[C@H](O)[C@H](O)C(=O)[O-].[Na+] [sodium glucuronate]
E. coli growth and glucose consumption (E. coli): not observed to be affected

O=C([O-])[C@@H](O)[C@@H](O)[C@H](O)[C@@H](O)C(=O)[O-].[K+].[K+] [potassium glucarate]
E. coli growth and glucose consumption (E. coli): not observed to be affected

NC(=O)c1ccc[n+]([C@@H]2O[C@H](COP(=O)([O-])OP(=O)(O)OC[C@H]3O[C@@H](n4cnc5c(N)ncnc54)[C@H](O)[C@@H]3O)[C@@H](O)[C@H]2O)c1 [NAD^+, nicotinamide adenine dinucleotide]
utilization as a co-factor [1]: utilized

O=C(O)[C@H]1O[C@H](O)[C@H](O)[C@@H](O)[C@H]1O [Galacturonate, galacturonate]
kcat [2, 6]: 30 ± 3 s⁻¹ and 30.08 ± 3.12 s⁻¹
Km ([2]; pH 8.0): 100 ± 60 µM
kcat ([2]; pH 8.0): 0.3 ± 0.03 10^2 · 1/s
kcat [3, 6]: 24 ± 1 s⁻¹ and 24.02 ± 0.73 s⁻¹
Km ([3]; pH 8.0): 40 µM
kcat ([3]; pH 8.0): 0.2 ± 0.01 10^2 · 1/s
kcat [4, 6]: 92 ± 14 s⁻¹ and 91.85 ± 14.26 s⁻¹
Km ([4]; pH 8.0): 160 ± 120 µM
kcat ([4]; pH 8.0): 0.9 ± 0.14 10^2 · 1/s

O=C(O)[C@H]1O[C@@H](O)[C@H](O)[C@@H](O)[C@@H]1O [Glucuronate, glucuronate]
kcat [2, 6]: 55 ± 3 s⁻¹ and 54.57 ± 2.60 s⁻¹
Km ([2]; pH 8.0): 250 ± 70 µM
kcat ([2]; pH 8.0): 0.5 ± 0.03 10^2 · 1/s
kcat [3, 6]: 74 ± 3 s⁻¹ and 73.77 ± 3.13 s⁻¹
Km ([3]; pH 8.0): 280 ± 70 µM
kcat ([3]; pH 8.0): 0.7 ± 0.03 10^2 · 1/s
inhibition of MIOX from hog kidney in vitro (MIOX from hog kidney): not
kcat (highest rate constant) [4]: 190 s⁻¹
kcat of A. tumefaciens enzyme relative to the Pseudomonas enzymes ([4]; glucuronate as substrate): more than 2 fold
kcat [4, 6]: 194 ± 12 s⁻¹ and 193.90 ± 11.84 s⁻¹
Km ([4]; pH 8.0): 370 ± 120 µM
kcat ([4]; pH 8.0): 1.9 ± 0.12 10^2 · 1/s
kcat (highest rate constant) ([4]; unit not given): 1.9×10^2

O=C(O)[C@@H](O)[C@@H](O)[C@H](O)[C@@H](O)C(=O)O [D-glucaric acid]
inhibition of MIOX from hog kidney in vitro (MIOX from hog kidney): inhibited

B1: A. tumefaciens Udh: 6×-His tagged uronate dehydrogenase from A. tumefaciens str. C58 (SEQ ID NO:24), expressed in E. coli and purified (protein, listed as Agrobacterium tumefaciens)
chain: MKRLLVTGAAGQLGRVMRERLAPMAEILRLADLSPLDPAGPNEECVQCDLADANAVNAMVAGCDGIVHLGGISVEKPFEQILQGNIIGLYNLYEAARAHGQPRIVFASSNHTIGYYPQTERLGPDVPARPDGLYGVSKCFGENLARMYFDKFGQETALVRIGSCTPEPNNYRMLSTWFSHDDFVSLIEAVFRAPVLGCPVVWGASANDAGWWDNSHLGFLGWKPKDNAEAFRRHITETTPPPDPNDALVRFQGGTFVDNPIFKQS
modifications: 6xHis tag
activity after exposure to 37° C. for 30 minutes [5]: ~80 % of maximum

— patent publication US8835147B2, “Cellular production of glucaric acid through recombinant expression of uronate dehydrogenase and myo-inositol oxygenase” (Massachusetts Institute of Technology, priority 2008, dated 2014)
